One test has as its target T1, Recombinant human Trx (Homo sapiens, UniProt P10599).
T1 sequence (P10599 1-105): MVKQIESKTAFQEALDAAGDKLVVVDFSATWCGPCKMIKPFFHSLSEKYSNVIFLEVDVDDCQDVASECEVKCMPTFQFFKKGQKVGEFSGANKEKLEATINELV
In words: IEF PAGE of Trx incubated with Tavocept. It counts as binding. Further details: purchased Sigma (SigmaAldrich); host or cells: E. coli. As to conditions: Tavocept 10 mM, 37° C.

A further test has as its target recombinant human ALK (Homo sapiens, UniProt Q9UM73). Kind of test: biochemical. As to conditions: for IC50: IC50 on ALK. As to the method: The substrate that was phosphorylated by the kinase, polyglutamate-tyrosine (PolyGT), was purchased from Sigma (P0275, lot 120M5007V).
All other reagents were purchased from Sigma Aldrich. A Tecan Ultra microplate reader with XFluor software (Tecan, V4.51) and RdrOle software (Tecan, V4.50) were used in this study.
ALK phosphorylated the polyGT substrate using the ATP cofactor and produced ADP. […] The reactions, in microtubes, were incubated for 60 minutes at 25° C. in a water bath. Following this 60 minute incubation, reactions were transferred to microplates and the kinase activity was evaluated using the ADP-glo system from Promega and monitored, in an endpoint assay, ADP produced when ALK phosphorylated the PolyGT substrate. Various controls were tested and included the assay components indicated in the columns of Table 9 below (where + indicates the component was included and an empty cell indicates it was not included).
Kinase assays were run in triplicate or quadruplicate in microplates. Following this, the ADP-glo detection system (Promega) was used to determine how much ADP had been produced. For 10 μL volume assays, to each microplate well containing 10 μL of kinase reaction was added ADP-glo reagent (10 μL), plates were spun in a table top centrifuge (1000 rpm (123×g) for 1 minute) to ensure no reagent remained on the well walls, and then agitated for 1 minute to ensure optimal mixing. Plates were incubated at 25° C. on a heat block for 40 minutes. Next, kinase detection reagent (20 μL) was added and, as above, centrifugation and agitation was repeated; plates were allowed to incubate at 25° C.±1° C. on a heat block for 40 minutes. Following the incubation of the kinase detection reagent, plates were read on a Tecan Ultra microplate reader. The Tecan Ultra contained a built-in plate definition file for the whole area 96-well white Corning plates but a plate definition file for the half area 96-well Corning plates was created using the RdrOle component of the Tecan Ultra software. For 25 μL volume assays, the procedure was as described above except that the ADP-glo reagent added to the 25 μL assay was 25 μL in volume and the kinase detection reagent was 50 μL in volume.
Therefore, each mole of polymer of 20,000 g/mole would contain approximately 28 moles of the glu-glu-glu-glu-tyr “subpolymer.” Typically, a 10 μL assay would contain […] of the polyGT substrate. […] This was a vast excess of possible tyrosine phosphorylation sites, ensuring that the substrate for phosphorylation was not rate limiting (assuming the higher mass range would produce an even larger excess of glu-glu-glu-glu-tyr “subpolymers”).
Data from ALK assays run on the Tecan Ultra microplate spectrophotometer were collected in Microsoft Excel. Error calculations and graphical representations were performed in Microsoft Office Excel (Microsoft Corporation, Redmond, Wash., USA). Determination of IC25, IC50 and IC75 values were accomplished using Origin Lab software (OriginLab Corporation, Northampton, Mass., USA).

In test [1] the target is T2, recombinant human farnesyltransferase (Homo sapiens, UniProt P49354+P49356).
T2 construct: purchased Abcam
T2 sequence (P49356 whole entry, one chain of several): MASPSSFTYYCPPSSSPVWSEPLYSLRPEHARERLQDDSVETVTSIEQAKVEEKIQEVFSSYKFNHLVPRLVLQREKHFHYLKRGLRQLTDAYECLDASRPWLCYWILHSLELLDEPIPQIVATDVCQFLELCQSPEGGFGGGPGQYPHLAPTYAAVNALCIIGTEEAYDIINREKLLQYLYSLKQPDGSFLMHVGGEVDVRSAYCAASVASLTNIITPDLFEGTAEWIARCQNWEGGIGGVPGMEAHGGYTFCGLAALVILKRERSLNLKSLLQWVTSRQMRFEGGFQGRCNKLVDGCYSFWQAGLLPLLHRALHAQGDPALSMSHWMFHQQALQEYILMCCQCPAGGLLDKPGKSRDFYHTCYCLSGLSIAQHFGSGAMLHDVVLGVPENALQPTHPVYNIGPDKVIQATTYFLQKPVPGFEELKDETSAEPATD
Kind of test: Farnesyltransferase Dansyl-GCVLS fluorescence assay. It counts as biochemical. As to conditions: 25 nM FTase, 3 μM Dansyl-GCVLS, 25° C. How it is done: Tavocept-inhibited human farnesyltransferase-mediated transfer of farnesylpyrophosphate to the cysteine residue in a danyslated peptide substrate of sequence glycine-cysteine-valine-leucine-serine (designated-Dansyl-GCVLS) in vitro. See, FIG. 79. The assay reactions contained 25 nM recombinant human farnesyltransferase (Abcam), 10 μM farnesylpyrophosphate (SigmaAldrich), 3 μM Dansyl-GCVLS (NeoBioScience) in Tris buffer (50 mM, pH 7.5) containing 5 mM MgCl2, 10 μM ZnCl2, and 0.2% octyl-β-D-glucopyranoside. Total assay volumes were 50 μL and the reactions were initiated by the addition of FTase (5 μL of 250 nM stock was added to 45 μL of assay components listed above). The excitation wavelength was 340 nm (a 340 nm filter with 25 nm bandpass) and the emission wavelength was […] (505 nm filter with 20 nm bandpass) and the assay temperature was 25° C. Progress curves of the transfer of the farnesylpyrophosphate to the Dansyl-GCVLS substrate are shown in FIG. 79, Panel A and relative rates of the progress curve were determined and are shown in FIG. 79, Panel B.

Molecules are shown by their SMILES. Like-named read-outs stand apart in the source and are kept apart here.

recombinant human ALK, sequence (Q9UM73 1058-1620 limits assumed): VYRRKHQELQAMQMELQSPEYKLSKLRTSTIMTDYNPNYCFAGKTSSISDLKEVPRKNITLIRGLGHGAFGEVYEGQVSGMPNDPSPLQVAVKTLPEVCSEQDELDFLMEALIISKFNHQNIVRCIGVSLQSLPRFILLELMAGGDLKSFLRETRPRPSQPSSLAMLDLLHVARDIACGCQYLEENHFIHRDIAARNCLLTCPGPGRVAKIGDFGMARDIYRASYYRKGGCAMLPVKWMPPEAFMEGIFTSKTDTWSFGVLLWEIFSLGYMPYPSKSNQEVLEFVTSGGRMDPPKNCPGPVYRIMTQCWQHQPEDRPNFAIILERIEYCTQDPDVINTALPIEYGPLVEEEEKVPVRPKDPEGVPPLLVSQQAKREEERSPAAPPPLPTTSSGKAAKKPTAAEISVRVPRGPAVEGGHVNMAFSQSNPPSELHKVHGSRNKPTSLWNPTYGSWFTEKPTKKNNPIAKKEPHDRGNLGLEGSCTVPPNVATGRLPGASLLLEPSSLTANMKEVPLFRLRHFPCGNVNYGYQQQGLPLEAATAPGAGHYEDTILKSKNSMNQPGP

In general, IC50 refers to the concentration needed to halve the response being measured. By inhibition is commonly meant the share of the control response that was lost under treatment. `O=S(=O)([O-])CCSSCCS(=O)(=O)[O-].[Na+].[Na+]` [Tavocept, disodium 2,2′-dithio-bis-ethane sulfonate]: at Recombinant human Trx, the “Trx migration on IEF gel” value is given as “shift in Trx migration”. Moreover, the “greater inhibition of ALK than Crizotinib alone” value at recombinant human ALK (100 μM ATP, 5 mM Tavocept + 15 nM Crizotinib) stood at 16%; on recombinant human ALK (100 μM ATP, 5 mM Tavocept + 30 nM Crizotinib), 10%; on recombinant human ALK (100 μM ATP, 10 mM Tavocept + 15 nM Crizotinib), 29%; at recombinant human ALK (100 μM ATP, 10 mM Tavocept + 30 nM Crizotinib), 19%; on recombinant human ALK (500 μM ATP, 5 mM Tavocept + 30 nM Crizotinib) it was 11%; on recombinant human ALK (500 μM ATP, 5 mM Tavocept + 65 nM Crizotinib) it was 6%. Further, the “greater inhibition of ALK than Crizotinib alone” value on recombinant human ALK (500 μM ATP, 10 mM Tavocept + 30 nM Crizotinib) stood at 20%; on recombinant human ALK (500 μM ATP, 10 mM Tavocept + 65 nM Crizotinib), 6%; at recombinant human ALK (500 μM ATP, 20 mM Tavocept + 30 nM Crizotinib), 30%; on recombinant human ALK (500 μM ATP, 20 mM Tavocept + 65 nM Crizotinib), 13%. The IC50 was determined as 9.16 ± 2.91 mM at recombinant human ALK (100 μM ATP) and 20.8 ± 3.49 mM on recombinant human ALK (500 μM ATP). Moreover, the inhibition at 5000 µM at recombinant human ALK (read-out: greater inhibition of ALK than Crizotinib alone, 100 μM ATP, 5 mM Tavocept + 15 nM Crizotinib) came out at 16%; on recombinant human ALK (read-out: greater inhibition of ALK than Crizotinib alone, 100 μM ATP, 5 mM Tavocept + 30 nM Crizotinib), 10%; at recombinant human ALK (read-out: greater inhibition of ALK than Crizotinib alone, 500 μM ATP, 5 mM Tavocept + 30 nM Crizotinib) it was 11%; on recombinant human ALK (read-out: greater inhibition of ALK than Crizotinib alone, 500 μM ATP, 5 mM Tavocept + 65 nM Crizotinib), 6%. The inhibition at 10000 µM on recombinant human ALK (read-out: greater inhibition of ALK than Crizotinib alone, 100 μM ATP, 10 mM Tavocept + 15 nM Crizotinib) is 29%; on recombinant human ALK (read-out: greater inhibition of ALK than Crizotinib alone, 100 μM ATP, 10 mM Tavocept + 30 nM Crizotinib), 19%; on recombinant human ALK (read-out: greater inhibition of ALK than Crizotinib alone, 500 μM ATP, 10 mM Tavocept + 30 nM Crizotinib) it was 20%; at recombinant human ALK (read-out: greater inhibition of ALK than Crizotinib alone, 500 μM ATP, 10 mM Tavocept + 65 nM Crizotinib), 6%. Also, the inhibition at 20000 µM at recombinant human ALK (read-out: greater inhibition of ALK than Crizotinib alone, 500 μM ATP, 20 mM Tavocept + 30 nM Crizotinib) was 30%; on recombinant human ALK (read-out: greater inhibition of ALK than Crizotinib alone, 500 μM ATP, 20 mM Tavocept + 65 nM Crizotinib), 13%. Moreover, the Inhibition of farnesylation entry in test [1] was “inhibits farnesylation in a concentration-dependent manner”.

(Values after patent publication US20160106439A1, “PNEUMATIC TOURNIQUET” (BIONUMERIK PHARMACEUTICALS, INC., priority 2013, published 2016).)
